Assay results reported in patent US20260001914A1, “MACROCYCLIC PEPTIDES TARGETING KRAS” (Merck Sharp & Dohme LLC, priority 2022, published 2026).
*1 amine or outer side, *2 acyl side, *3 side chain or, on linkers, in order; H or OH if unused. Where a SMILES comes first, the peptide text is derived from it. Bridges are numbered along the chain shown (N, C = ends). [ ]: non-standard residue; d: D form. The star is where a group is joined. cBu(1-CO,cis-3-CH2NH) = O=C([C@H]1C[C@@H](CN[*:1])C1)[*:2]; Phe(4-guanidino) = N=C(N)Nc1ccc(C[C@H](N)C(=O)O)cc1; X22 = CNC(=N)N(C)CCC[C@@H](C(=O)[*:2])N(C)[*:1]; NMe3Pal(6-Me) = CN[C@@H](Cc1ccc(C)nc1)C(=O)O; NMeHis(τ-Me) = CN[C@@H](Cc1cn(C)cn1)C(=O)O; X20 = CN([C@@H](Cc1cnco1)C(=O)[*:2])[*:1]; X3 = CN([C@@H](Cc1cncnc1)C(=O)[*:2])[*:1]; Ethyl(2-pyrrolidin-1-yl) = C1CCN(CC*)C1; NMeArg(Me) = CNC(=N)NCCC[C@H](NC)C(=O)O; Phe(2-CN) = N#Cc1ccccc1C[C@H](N)C(=O)O; X32 = CS(=O)(=O)CCCN(CC(=O)[*:2])[*:1]; X47 = O=C([C@H](Cc1ccoc1)N[*:1])[*:2]; X12 = CC(=O)NCCCN(CC(=O)[*:2])[*:1]; X38 = NC(=O)CCCN(CC(=O)[*:2])[*:1]; NMeOrn(Me) = CNCCC[C@H](NC)C(=O)O; NMeF = CN[C@@H](Cc1ccccc1)C(=O)O; 3Pal = N[C@@H](Cc1cccnc1)C(=O)O; Gly(N(CH2)3NH2) = NCCCNCC(=O)O; Ahp(2) = CCCCC[C@H](N)C(=O)O; Cba = N[C@@H](CC1CCC1)C(=O)O; αMeC = C[C@](N)(CS)C(=O)O; Nle = CCCC[C@H](N)C(=O)O; Pyrrolidide = C1CCN(*)C1

What follows are compounds tested against KRAS-G12D protein (Homo sapiens, UniProt P01116, G12D) (assay: SOS-mediated nucleotide exchange assay (BODIPY-GDP / Tb-streptavidin TR-FRET)).
KRAS-G12D protein, sequence (P01116 1-188 isoform P01116-2 G12D): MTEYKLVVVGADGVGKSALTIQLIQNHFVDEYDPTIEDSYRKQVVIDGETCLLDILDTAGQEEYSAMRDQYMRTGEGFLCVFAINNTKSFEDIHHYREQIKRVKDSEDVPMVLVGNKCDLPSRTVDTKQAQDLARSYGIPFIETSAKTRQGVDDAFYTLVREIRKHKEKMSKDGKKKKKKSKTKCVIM
Format: biochemical

Structure (SMILES)	EC50 [nM]
CCCCC[C@@H]1NC(=O)[C@H](Cc2ccc(OC)cc2)NC(=O)[C@H](CC2CCC2)NC(=O)[C@H](Cc2cccnc2)NC(=O)[C@H](CCCNC(=N)N)NC(=O)[C@H](Cc2ccccc2F)NC(=O)CSC[C@@](C)(C(N)=O)NC(=O)[C@H](Cc2ccccc2)N(C)C1=O [compound 370, cyclo(Phe2F-R-3Pal-cBuA-TyrOMe-Ahp-NMeF-aMeCl-ClAc)]	14.9
CCCCC[C@@H]1NC(=O)[C@H](Cc2ccc(OC)cc2)NC(=O)[C@H](CC2CCC2)NC(=O)[C@H](Cc2ccoc2)NC(=O)[C@H](CCCNC(=N)N)NC(=O)[C@H](Cc2ccccc2)NC(=O)CSC[C@@](C)(C(N)=O)NC(=O)[C@H](Cc2ccccc2)N(C)C1=O [compound 371, cyclo(F-R-Ala3Fur-cBuA-TyrOMe-Ahp-NMeF-aMeCl-ClAc)]	82.6
CCCCC[C@@H]1NC(=O)[C@H](Cc2ccc(OC)cc2)NC(=O)[C@H](CC2CCC2)NC(=O)[C@H](Cc2cnn(C)c2)NC(=O)[C@H](CCCNC(=N)N)NC(=O)[C@H](Cc2ccccc2)NC(=O)CSC[C@@](C)(C(N)=O)NC(=O)[C@H](Cc2ccccc2)N(C)C1=O [compound 372, cyclo(F-R-Ala4PyzlMe-cBuA-TyrOMe-Ahp-NMeF-aMeCl-ClAc)]	10.2
CCCCC[C@@H]1NC(=O)[C@H](CC(=O)N2CCCC2)NC(=O)[C@H](CC2CCC2)NC(=O)[C@H](Cc2cccnc2)NC(=O)[C@H](CCCNC(=N)N)NC(=O)[C@H](Cc2ccccc2)NC(=O)CSC[C@@](C)(C(N)=O)NC(=O)[C@H](Cc2ccccc2)N(C)C1=O [compound 373, cyclo(F-R~3Pal-cBuA-PyD-Ahp-NMeF-aMeCl-ClAc)] ({CH2CO}-FR[3Pal][Cba]D(Pyrrolidide)[Ahp(2)][NMeF][αMeC]-NH2; thioether N-8)	1970
CCCCC[C@@H]1NC(=O)[C@H](Cc2ccoc2)NC(=O)[C@H](CC2CCC2)NC(=O)[C@H](Cc2cccnc2)NC(=O)[C@H](CCCNC(=N)N)NC(=O)[C@H](Cc2ccccc2)NC(=O)CSC[C@@](C)(C(N)=O)NC(=O)[C@H](Cc2ccccc2)N(C)C1=O [compound 374, cyclo(F-R-3Pal-cBuA-Ala3Fur-Ahp-NMeF-aMeCl-ClAc)] ({CH2CO}-FR[3Pal][Cba][X47][Ahp(2)][NMeF][αMeC]-NH2; thioether N-8)	69.8
CCCCC[C@@H]1NC(=O)[C@H](Cc2ccccc2C#N)NC(=O)[C@H](CC2CCC2)NC(=O)[C@H](Cc2cccnc2)NC(=O)[C@H](CCCNC(=N)N)NC(=O)[C@H](Cc2ccccc2)NC(=O)CSC[C@@](C)(C(N)=O)NC(=O)[C@H](Cc2ccccc2)N(C)C1=O [compound 375, cyclo(F-R-3Pal-cBuA-Phe2CN-Ahp-NMeF-aMeCl-ClAc)] ({CH2CO}-FR[3Pal][Cba][Phe(2-CN)][Ahp(2)][NMeF][αMeC]-NH2; thioether N-8)	57.9
CCCCC[C@@H]1NC(=O)[C@H](Cc2ccc(OC)cc2)NC(=O)[C@H](CC2CCC2)NC(=O)[C@H](Cc2cccnc2)NC(=O)[C@H](CCCNC(=N)N)NC(=O)[C@H](Cc2ccccc2)NC(=O)CSC[C@@](C)(C(N)=O)NC(=O)[C@H](Cc2cncnc2)N(C)C1=O [compound 376, cyclo(F-R-3Pal-cBuA-TyrOMe-Ahp-NMeAlaPyrim-aMeCl-ClAc)] ({CH2CO}-FR[3Pal][Cba]Y(Me)[Ahp(2)][X3][αMeC]-NH2; thioether N-8)	26.6
CCCCC[C@@H]1NC(=O)[C@H](Cc2ccc(OC)cc2)NC(=O)[C@H](CC2CCC2)NC(=O)[C@H](Cc2cccnc2)NC(=O)[C@H](CCCNC(=N)N)NC(=O)[C@H](Cc2ccccc2)NC(=O)CSC[C@@](C)(C(N)=O)NC(=O)[C@H](Cc2ccc(C)nc2)N(C)C1=O [compound 377, cyclo(F-R-3Pal-cBuA-TyrOMe-Ahp-NMe3Pal4Me-aMeCl-ClAc)] ({CH2CO}-FR[3Pal][Cba]Y(Me)[Ahp(2)][NMe3Pal(6-Me)][αMeC]-NH2; thioether N-8)	8.11
CCCCC[C@@H]1NC(=O)[C@H](Cc2ccc(OC)cc2)NC(=O)[C@H](CC2CCC2)NC(=O)[C@H](Cc2cccnc2)NC(=O)[C@H](CCCNC(=N)N)NC(=O)[C@H](Cc2ccccc2)NC(=O)CSC[C@@](C)(C(N)=O)NC(=O)[C@H](Cc2cn(C)cn2)N(C)C1=O [compound 378, cyclo(F-R-3Pal-cBuA-TyrOMe-Ahp-NMeHis1Me-aMeCl-ClAc)] ({CH2CO}-FR[3Pal][Cba]Y(Me)[Ahp(2)][NMeHis(τ-Me)][αMeC]-NH2; thioether N-8)	45.2
CCCCC[C@@H]1NC(=O)[C@H](Cc2ccc(OC)cc2)NC(=O)[C@H](CC2CCC2)NC(=O)[C@H](Cc2cccnc2)NC(=O)[C@H](CCCNC(=N)N)NC(=O)[C@H](Cc2ccccc2)NC(=O)CSC[C@@](C)(C(N)=O)NC(=O)[C@H](Cc2cnco2)N(C)C1=O [compound 379, cyclo(F-R-3Pal-cBuA-TyrOMe-Ahp-NMeAla5Oxa-aMeCl-ClAc)] ({CH2CO}-FR[3Pal][Cba]Y(Me)[Ahp(2)][X20][αMeC]-NH2; thioether N-8)	48.9
CCCCC[C@@H]1NC(=O)[C@H](Cc2ccc(OC)cc2)NC(=O)[C@H](CC2CCC2)NC(=O)[C@H](Cc2ccc(NC(=N)N)cc2)NC(=O)[C@H](CCCNC(=N)NC)N(C)C(=O)[C@H](Cc2ccccc2)NC(=O)CSC[C@@](C)(C(N)=O)NC(=O)[C@H](Cc2ccccc2)N(C)C1=O [compound 380, cyclo(F-NMeArgMe-Phe4Gn-cBuA-TyrOMe-Abp-NMeF-aMeCl-ClAc)] ({CH2CO}-F[NMeArg(Me)][Phe(4-guanidino)][Cba]Y(Me)[Ahp(2)][NMeF][αMeC]-NH2; thioether N-8)	1.68
CCCCC[C@@H]1NC(=O)[C@H](Cc2ccc(OC)cc2)NC(=O)[C@H](CC2CCC2)NC(=O)[C@H](Cc2ccc(NC(=N)N)cc2)NC(=O)[C@H](CCCN(C)C(=N)NC)N(C)C(=O)[C@H](Cc2ccccc2)NC(=O)CSC[C@@](C)(C(N)=O)NC(=O)[C@H](Cc2ccccc2)N(C)C1=O [compound 381, cyclo(F-NMeArg1MeMe-Phe4Gn-cBuA-TyrOMe-Ahp-NMeF-aMeCl-ClAc)] ({CH2CO}-F[X22][Phe(4-guanidino)][Cba]Y(Me)[Ahp(2)][NMeF][αMeC]-NH2; thioether N-8)	1.69
CCCCC[C@@H]1NC(=O)[C@H](Cc2ccc(OC)cc2)NC(=O)[C@H](CC2CCC2)NC(=O)[C@H](Cc2ccc(N(C)C(=N)NC)cc2)NC(=O)[C@H](CCCNC(=N)N)NC(=O)[C@H](Cc2ccccc2)NC(=O)CSC[C@@](C)(C(N)=O)NC(=O)[C@H](Cc2ccccc2)N(C)C1=O [compound 382, cyclo(F-R-Phe4GnMeMe-cBuA-TyrOMe-Ahp-NMeF-aMeCl-ClAc)]	1.6
CCCCC[C@@H]1NC(=O)[C@H](Cc2ccc(OC)cc2)NC(=O)[C@H](CC2CCC2)NC(=O)[C@H](Cc2ccc(OCCN3CCCC3)cc2)NC(=O)[C@H](CCCNC(=N)N)NC(=O)[C@H](Cc2ccccc2)NC(=O)CSC[C@@](C)(C(N)=O)NC(=O)[C@H](Cc2ccccc2)N(C)C1=O [compound 383, cyclo(F-R-TyrOEtPyr-cBuA-TyrOMe-Ahp-NMeF-aMeCl-ClAc)] ({CH2CO}-FRY(Ethyl(2-pyrrolidin-1-yl))[Cba]Y(Me)[Ahp(2)][NMeF][αMeC]-NH2; thioether N-8)	9.79
CCCC[C@@H]1NC(=O)[C@H](Cc2ccc(NC(=N)N)cc2)NC(=O)[C@H](CCCN(C)C(=N)NC)N(C)C(=O)[C@H](Cc2ccccc2)NC(=O)[C@H]2C[C@@H](CNC(=O)[C@H](Cc3ccccc3)N(C)C(=O)[C@H](CCCC)NC(=O)[C@H](Cc3ccc(OC)cc3)NC1=O)C2 [compound 384, cyclo(F-NMeArg1MeMe-Phe4Gn-Nle-TyrOMe-Nle-NMeF-c3amCblc)] (cyclo(F[X22][Phe(4-guanidino)][Nle]Y(Me)[Nle][NMeF][cBu(1-CO,cis-3-CH2NH)]))	181
CCCCC[C@@H]1NC(=O)[C@H](Cc2ccc(OC)cc2)NC(=O)[C@H](CC2CCC2)NC(=O)[C@H](Cc2ccc(NC(=N)N)cc2)NC(=O)[C@H](CCCNC)N(C)C(=O)[C@H](Cc2ccccc2)NC(=O)CSC[C@@](C)(C(N)=O)NC(=O)[C@H](Cc2ccccc2)N(C)C1=O [compound 385, cyclo(F-NMeOrnMe-Phe4Gn-cBuA-TyrOMe-Ahp-NMeF-aMeCl-ClAc)] ({CH2CO}-F[NMeOrn(Me)][Phe(4-guanidino)][Cba]Y(Me)[Ahp(2)][NMeF][αMeC]-NH2; thioether N-8)	19.7
CCCCC[C@@H]1NC(=O)[C@H](Cc2ccc(OC)cc2)NC(=O)[C@H](CC2CCC2)NC(=O)[C@H](Cc2ccc(NC(=N)N)cc2)NC(=O)CN(CCCC(N)=O)C(=O)[C@H](Cc2ccccc2)NC(=O)CSC[C@@](C)(C(N)=O)NC(=O)[C@H](Cc2ccccc2)N(C)C1=O [compound 386, cyclo(F-Cmpg-Phe4Gn-cBuA-TyrOMe-Abp-NMeF-aMeCl-ClAc)] ({CH2CO}-F[X38][Phe(4-guanidino)][Cba]Y(Me)[Ahp(2)][NMeF][αMeC]-NH2; thioether N-8)	134
CCCCC[C@@H]1NC(=O)[C@H](Cc2ccc(OC)cc2)NC(=O)[C@H](CC2CCC2)NC(=O)[C@H](Cc2ccc(NC(=N)N)cc2)NC(=O)CN(CCCNC(C)=O)C(=O)[C@H](Cc2ccccc2)NC(=O)CSC[C@@](C)(C(N)=O)NC(=O)[C@H](Cc2ccccc2)N(C)C1=O [compound 387, cyclo(F-AcApG-Phe4Gn-cBuA-TyrOMe-Ahp-NMcF-aMeCl-ClAc)] ({CH2CO}-F[X12][Phe(4-guanidino)][Cba]Y(Me)[Ahp(2)][NMeF][αMeC]-NH2; thioether N-8)	164
CCCCC[C@@H]1NC(=O)[C@H](Cc2ccc(OC)cc2)NC(=O)[C@H](CC2CCC2)NC(=O)[C@H](Cc2ccc(NC(=N)N)cc2)NC(=O)CN(CCCN)C(=O)[C@H](Cc2ccccc2)NC(=O)CSC[C@@](C)(C(N)=O)NC(=O)[C@H](Cc2ccccc2)N(C)C1=O [compound 388, cyclo(F-NPrNH2G-Phe4Gn-cBuA-TyrOMe-Ahp-NMeF-aMeCl-ClAc)] ({CH2CO}-F[Gly(N(CH2)3NH2)][Phe(4-guanidino)][Cba]Y(Me)[Ahp(2)][NMeF][αMeC]-NH2; thioether N-8)	121
CCCCC[C@@H]1NC(=O)[C@H](Cc2ccc(OC)cc2)NC(=O)[C@H](CC2CCC2)NC(=O)[C@H](Cc2ccc(NC(=N)N)cc2)NC(=O)CN(CCCS(C)(=O)=O)C(=O)[C@H](Cc2ccccc2)NC(=O)CSC[C@@](C)(C(N)=O)NC(=O)[C@H](Cc2ccccc2)N(C)C1=O [compound 389, cyclo(F-Mspg-Phe4Gn-cBuA-TyrOMe-Ahp-NMeF-aMeCl-ClAc)] ({CH2CO}-F[X32][Phe(4-guanidino)][Cba]Y(Me)[Ahp(2)][NMeF][αMeC]-NH2; thioether N-8)	441
